# Data published in patent US4504480A, “Pentacyclic compounds” (Beecham Group p.l.c., priority 1982, dated 1985).
# Molecular target: T1, α2-adrenoceptors (Rattus norvegicus, UniProt P22909)
# T1 construct: isolated rat-brain synaptic membrane fragments; from tissue; host or cells: rat brain, synaptic membrane fragments
# T1 sequence (P22909 1-465): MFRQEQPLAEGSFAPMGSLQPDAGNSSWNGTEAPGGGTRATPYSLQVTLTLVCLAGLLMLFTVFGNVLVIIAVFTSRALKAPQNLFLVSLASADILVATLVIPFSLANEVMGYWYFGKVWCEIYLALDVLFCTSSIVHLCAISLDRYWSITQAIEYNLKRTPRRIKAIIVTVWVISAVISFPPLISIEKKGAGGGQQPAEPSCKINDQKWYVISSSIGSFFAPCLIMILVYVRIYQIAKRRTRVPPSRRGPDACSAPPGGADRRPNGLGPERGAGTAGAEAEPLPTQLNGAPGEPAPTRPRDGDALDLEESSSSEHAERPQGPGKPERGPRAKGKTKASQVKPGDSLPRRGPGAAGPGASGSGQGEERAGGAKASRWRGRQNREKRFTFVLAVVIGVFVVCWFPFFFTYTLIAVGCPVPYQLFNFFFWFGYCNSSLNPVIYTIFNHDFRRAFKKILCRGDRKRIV
# Experiment: inhibition of [3H]-clonidine binding to isolated rat-brain synaptic membrane fragments
# Details: from IC50 by Cheng-Prusoff equation
# Source text: Blockade of presynaptic α2 -adrenoceptors on noradrenergic neurones effects an increase in intrasynaptic noradrenaline, and thus in the central nervous system could be expected to have an antidepressant effect. [^3 H]-Clonidine binds to α2 -adrenoceptor sites and inhibition of this binding correlates with the blockade of α2 -adrenoceptors. In vitro inhibition by some of the present compounds of the binding of [^3 H]-clonidine to isolated rat-brain synaptic membrane fragments was therefore determined to provide an indication of antidepressant activity. This was carried out using standard biochemical binding study techniques, by the method of Maggi et al, Eur. J. Pham. 1980, 61, 91. IC50 values were obtained from log [dose] against % inhibition curves; Ki values were determined using the Cheng-Prusoff equation.
row,SMILES,Ki [nM]
1,"CN1CCN2c3ccccc3Cc3cccc4c3[C@@H]2[C@H]1C4 (relative stereo) [Example I, trans-12-Methyl-1,10,11,12,12a,12b-hexahydro-5H-9b,12-diazabenzo[5,6]cyclohepta[1,2,3,4-def]fluorene]",88
2,"CN1CCN2c3ccccc3Cc3cccc4c3[C@@H]2[C@H]1CC4 (relative stereo) [Example II, trans-13-methyl-1,2,6,11,12,13,13a,13b-octahydro-10b13-diazabenzo[gh]pleiadene]",169
